{
  "source": "patent US20230081034A1",
  "about": "(SHANGHAI BENEMAE PHARMACEUTICAL CORPORATION, priority 2020, published 2023)",
  "key": {"[1]": {"system": "patients with type 2 diabetes", "assay": "Randomized, double-blind, placebo-controlled clinical trial: subcutaneous beinaglutide before meals in combination with oral metformin, 12-week treatment", "format": "in vivo, human", "description": "The inclusion criteria (if any) are as follows: Type 2 diabetic patients that met the World Health Organization's diagnostic criteria for type 2 diabetes (WHO, 1999) who received oral metformin treatment at dosages 1,000 mg/d that had stabilized for at least 3 months without treatment-related adverse events (e.g., vomiting) and voluntarily signed informed consent and with the following criteria:\nIn a randomized, double-blind, placebo-controlled clinical trial, 42 patients with type 2 diabetes treated with metformin monotherapy were randomly divided into a treatment group and a control group, with 21 cases in each group. All patients received metformin (Glucophage, purchased from Bristol-Myers Squibb) with original dosages. 200 μg of beinaglutide (from Benemae, treatment group) or a placebo (Benemae, control group) were administered to patients by one-time subcutaneous injection before each of three meals (600 μg/d) and followed up after a 12-week treatment.\nGlycated hemoglobin (HbA1c), fasting blood glucose, 2 h postprandial blood glucose, BMI, and other effectiveness indicators were measured."}, "[2]": {"system": "obese and overweight patients with type 2 diabetes", "assay": "Beinaglutide dosing regimen (continuous subcutaneous pump plus pre-meal doses), alone or with metformin / insulin glargine, one month", "format": "in vivo, human", "description": "The beinaglutide dosing regimen included 1) a continuous subcutaneous administration of beinaglutide at 12.5 μg/h (300 μg/d) via a subcutaneous pump, 2) a one-time subcutaneous administration of beinaglutide at a dose of 100 μg 5 min before each of the three meals a day, and 3) optional administration of insulin glargine and/or metformin.\nThe patients treated were overweight/obesity in short disease course of type 2 diabetes. Two patients were female, and four patients were male. The patients were 30 to 55 years old with a course of disease between 0 and 5 years with glycated hemoglobin between 9% and 12%, and BMI between 26 and 30 kg/m^2.\nThree patients were treated with beinaglutide monotherapy. Three patients were treated with a combinational therapy of beinaglutide and one or two third active ingredients (metformin, or metformin and glargine). Glycated hemoglobin (HbA1c) and weight were measured.\nThe patients were treated with the beinaglutide dosing regimen described herein, either alone or in combination with one or more third active ingredients. Some patients were treated with insulin (daily dosage of 0.5 u/kg) pump treatment alone or in combination with metformin (0.5 g tid) for a week right before starting the beinaglutide treatment."}, "[3]": {"settings": "treatment group, after 12 weeks beinaglutide 600 μg/d s.c. + metformin"}, "[4]": {"settings": "Patient 2: insulin (0.5 u/kg) 1 week, then beinaglutide regimen + metformin (0.5 g tid) 1 month"}},
  "note": "“Also recorded” adds a separate entry of the source.",
  "data": [
    {"substance": "His-Ala-Glu-Gly-Thr-Phe-Thr-Ser-Asp-Val-Ser-Ser-Tyr-Leu-Glu-Gly-Gln-Ala-Ala-Lys-Glu-Phe-Ile-Ala-Trp-Leu-Val-Lys-Gly-Arg [beinaglutide]", "values": [
      {"measurement": "BMI, treatment group versus control group", "setting": "[1]; 12 weeks, P>0.05", "result": "no statistic differences between the two groups"},
      {"measurement": "Postprandial blood glucose decreased by", "setting": "[1]; 2 h postprandial, treatment group, beinaglutide 600 μg/d s.c. + metformin, 12 weeks, P<0.01", "result": 4.18, "unit": "mmol/L"},
      {"measurement": "HbA1c decreased by", "setting": "[1]; treatment group (21 cases), metformin at original dosage + beinaglutide 200 μg s.c. before each of three meals (600 μg/d), 12 weeks, P<0.01", "result": 1.17, "unit": "%"},
      {"measurement": "HbA1c and fasting blood glucose post-treatment versus control group", "setting": "[1]; treatment group vs placebo + metformin, 12 weeks, P<0.05", "result": "even more significant decrease comparing with control group"},
      {"measurement": "HbA1c and fasting blood glucose post-treatment versus pre-treatment", "setting": "[1]; treatment group, 12 weeks beinaglutide 600 μg/d + metformin", "result": "significant decrease comparing with the pre-treatment indicators"},
      {"measurement": "BMI change after treatment", "setting": "[1]; treatment group, 12 weeks, P<0.05 (control group also decreased)", "result": "significant decrease in BMI"},
      {"measurement": "HbA1c post-treatment", "setting": "[1]; treatment group, after 12 weeks beinaglutide 200 μg s.c. before each of three meals + metformin", "result": 6.8, "unit": "%"},
      {"measurement": "Fasting blood glucose post-treatment", "setting": "[1]; [3]", "result": 7.45, "unit": "mmol/L"},
      {"measurement": "Postprandial blood glucose post-treatment", "setting": "[1]; [3]", "result": 11.02, "unit": "mmol/L"},
      {"measurement": "Fasting blood glucose pre-treatment", "setting": "[1]; treatment group, baseline", "result": 9.43, "unit": "mmol/L"},
      {"measurement": "Postprandial blood glucose pre-treatment", "setting": "[1]; treatment group, baseline", "result": 15.2, "unit": "mmol/L"},
      {"measurement": "HbA1c pre-treatment", "setting": "[1]; treatment group, baseline before beinaglutide 600 μg/d + metformin", "result": 7.97, "unit": "%"},
      {"measurement": "Fasting blood glucose decreased by", "setting": "[1]; treatment group, beinaglutide 600 μg/d s.c. + metformin, 12 weeks", "result": 1.98, "unit": "mmol/L"},
      {"measurement": "Body weight pre-treatment", "setting": "[2]; Patient 1, baseline", "result": 61, "unit": "kg"},
      {"measurement": "HbA1c pre-treatment", "setting": "[2]; Patient 1, baseline", "result": 9.4, "unit": "%"},
      {"measurement": "Body weight post-treatment", "setting": "[2]; Patient 1: insulin (0.5 u/kg) + metformin (0.5 g tid) 1 week, then beinaglutide monotherapy (12.5 μg/h continuous s.c. + 100 μg before each of three meals) 1 month", "result": 57.5, "unit": "kg"},
      {"measurement": "Body weight pre-treatment", "setting": "[2]; Patient 2, baseline", "result": 99, "unit": "kg"},
      {"measurement": "HbA1c pre-treatment", "setting": "[2]; Patient 2, baseline", "result": 8.8, "unit": "%"},
      {"measurement": "Body weight post-treatment", "setting": "[2]; [4]", "result": 93, "unit": "kg"},
      {"measurement": "HbA1c post-treatment", "setting": "[2]; [4]", "result": 6.3, "unit": "%"},
      {"measurement": "Body weight pre-treatment", "setting": "[2]; Patient 3, baseline", "result": 88, "unit": "kg"},
      {"measurement": "HbA1c pre-treatment", "setting": "[2]; Patient 3, baseline", "result": 12.3, "unit": "%"},
      {"measurement": "Body weight post-treatment", "setting": "[2]; Patient 3: insulin (0.5 u/kg) 1 week, then beinaglutide regimen + metformin (0.5 g tid) 1 month", "result": 83, "unit": "kg"},
      {"measurement": "Body weight pre-treatment", "setting": "[2]; Patient 4, baseline", "result": 80, "unit": "kg"},
      {"measurement": "HbA1c pre-treatment", "setting": "[2]; Patient 4, baseline", "result": 9.3, "unit": "%"},
      {"measurement": "Body weight post-treatment", "setting": "[2]; Patient 4: insulin (0.5 u/kg) 1 week, then beinaglutide regimen + metformin (0.5 g tid) + insulin glargine (16 u s.c. before bed) 1 month", "result": 73, "unit": "kg"},
      {"measurement": "Body weight pre-treatment", "setting": "[2]; Patient 5, baseline", "result": 80, "unit": "kg"},
      {"measurement": "HbA1c pre-treatment", "setting": "[2]; Patient 5, baseline", "result": 7.3, "unit": "%"},
      {"measurement": "Body weight post-treatment", "setting": "[2]; Patient 5: beinaglutide monotherapy (12.5 μg/h continuous s.c. + 100 μg before each of three meals) 1 month", "result": 77, "unit": "kg"},
      {"measurement": "Body weight pre-treatment", "setting": "[2]; Patient 6, baseline", "result": 85, "unit": "kg"},
      {"measurement": "HbA1c pre-treatment", "setting": "[2]; Patient 6, baseline", "result": 9.7, "unit": "%"},
      {"measurement": "Body weight post-treatment", "setting": "[2]; Patient 6: insulin (0.5 u/kg) 1 week, then beinaglutide monotherapy (0.6 mg/d) 1 month", "result": 78, "unit": "kg"},
      {"measurement": "Overall outcome on body weight and HbA1c", "setting": "[2]; six patients, continuous 300 μg/d + 100 μg tid before meal, alone or with metformin or metformin and insulin glargine, one month", "result": "significant weight loss and/or HbA1c decrease; also recorded: achieved decrease in HbA1c and/or body weight"}
    ]}
  ]
}
